In paper PMC10974242, “Killing of Plasmodium Sporozoites by Basic Amphipathic α-Helical Fusion Peptides” (Microorganisms, 2024):
Several values for one entry are separate records, joined by “and”; a condition that tells them apart may be missing. Equal entries are not always repeated. No end group written: not given here. *: point of attachment. FITC = O=C1OC2(c3ccc(O)cc3Oc3cc(O)ccc32)c2ccc(NC(=S)*)cc21

Assays:
[1] = tested on: P. berghei (Pb) salivary gland sporozoites; assay type: cell-based, P. berghei ANKA; conditions: for killing of GFP-expressing Pb sporozoites (in words): 3-9 independent experiments
Description: (§1) To assess the cytotoxic effect of the different peptides on sporozoites, we performed an in vitro assay as previously described. Briefly, sporozoites were incubated at 37 °C for 45 min with different peptides in the presence of 10% fetal calf serum (FCS). Samples were next, incubated for 10 min with 5 µg/mL propidium iodide (PI, Invitrogen, WA, USA) on ice and either imaged in an inverted Axio Observer Z.1 microscope (Zeiss, Oberkochen, Germany) and analyzed using Fiji or diluted 10 times with cold PBS before acquisition on a CytoFLEX S flow cytometer (Beckman Coulter, Brea, CA, USA). For the Pf cytotoxic assay, a final concentration of 0.5 µM cytochalasin D (Sigma-Aldrich) was used in some conditions. Viability was defined as the percentage of GFP+PI- sporozoites to the sum of GFP+PI-, GFP+PI+, and GFP-PI+ sporozoites. Data were analyzed using the CytExpert 2.0 software (Beckman Coulter).
(§2) To evaluate the killing of plasmodial sporozoites by membrane-active molecules, we tested the activity of cationic amphipathic α-helical peptides listed in Figure 1 on P. berghei (Pb), P. yoelii (Py), and P. falciparum (Pf) salivary gland sporozoites in vitro. Quantification of sporozoite death was measured by flow cytometry based on the uptake of propidium iodide (PI), a live cell impermeant nucleic acid fluorescent dye, and/or by the loss of parasite fluorescence following 45 min incubation at 37 °C in PBS 10% fetal calf serum (FCS).

human cells = conditions: cited from earlier work
From the text: Conversely, RT53, which combines the sequences of two basic amphipathic helical peptides (Figure 1B), one capable of translocating into cells and the other containing a heptad leucine repeat domain, which acts as a protein–protein interaction domain [32, 39], was able to kill Pb and Pf sporozoites.

cancer cells = conditions: cited from earlier work
From the text: (§3) We next tested the killing activity of a series of cationic amphipathic peptides consisting of penetratin (Figure 1, RK16), a cell-penetrating peptide (CPP) derived from the Drosophila melanogaster homeotic protein antennapedia a-helix 3 [25], fused with peptides derived from the a-helix 18 of the antiapoptosis clone 11 (AAC11) also known as Apoptosis Inhibitor 5 protein [26] (Figure 1, RL37, RT39, and RT53).

[2] = tested on: CD4+ T cells susceptible to HIV infection; conditions: cited from earlier work
From the text: as §3

[3] = tested on: P. falciparum (Pf) salivary gland sporozoites; assay: Sporozoite cytotoxicity assay (PI uptake), with or without cytochalasin D; assay type: cell-based; conditions: 45 min, 37 °C; for killing of Pf sporozoites (in words): 20 µM peptide, PBS 10% FCS
Description: as §1, §2

Pb sporozoites = assay: Dynamic microscopy and gliding motility assay of sporozoites; assay type: cell-based, P. berghei ANKA
Description: To visualize the killing of the sporozoites by the peptide, Pb sporozoites expressing mCherry were incubated with 20 μM of RT39 and RT39-FITC. First, 5000 sporozoites were activated in 10% FCS/PBS on an 18-well slide (iBidi, Gräfelfing, Germany). After 5 min, the peptide was added with 1 μM of To-Pro 3 and the sporozoites were immediately recorded for 15–30 min using a spinning-disk confocal system (UltraView ERS, PerkinElmer, Shelton, CT, USA) controlled by Volocity (PerkinElmer), composed of 4 Diode Pumped Solid State Lasers, a Yokogawa Confocal Scanner Unit CSU22, a z-axis piezoelectric actuator, and a Hamamatsu Orca-Flash 4.0 camera mounted on a Axiovert 200 microscope (Zeiss). Time-lapses were analyzed using Fiji.
To assess gliding motility, 5000 sporozoites were resuspended in 10% FCS/PBS in a final volume of 10 µL. The resulting suspension was transferred to an 18-well slide (iBidi) and centrifuged at 400× g for 3 min at 4 °C. The slide was then allowed to equilibrate at 37 °C, 5% CO2 for 3 min in the incubation chamber (Incubation System S, Zeiss) of an inverted epifluorescence wide-field microscope (AxioObserver Z.1, Zeiss) equipped with a LED illumination system (Colibri2, Zeiss), a CCD camera (AxioCam MR, Zeiss), and controlled by the AxioVision software (version 4.8.2.0, Zeiss). After 3 min, a time-lapse movie at a rate of one image per second was recorded for 2 min to control for initial parasite motility. After the 2 min recording, 10 µL of PBS or 20 µM of RT39 were added on top, and the parasites were immediately imaged for 20 min. The average sporozoite velocity at different time points was determined using the MTrack2 plug-in from Fiji.
RT39 induced a fast killing of Pb sporozoites in comparison with anti-CSP antibody as measured by flow cytometry. While 20 µM of the cytotoxic peptide killed most parasites before 5 min of incubation, 10 µg/mL of cytotoxic antibody needed more than 20 min to eliminate the majority of sporozoites (Figure 3A). To better understand the way RT39 is acting on Pb sporozoites, we dynamically imaged the cytotoxic effect of the peptide on fluorescent sporozoites in the presence of To-Pro 3, a live-cell impermeant far-red fluorescent nucleic acid dye. Given its fast-killing kinetics, RT39 was added to a microscopy chamber containing PBS 10% FCS and sporozoites, which were immediately recorded for 20 min at 37 °C. In the presence of FCS, most sporozoites move in a circular way in a substrate-dependent manner. Sporozoite death was assessed by the incorporation of To-Pro 3 and/or by the loss of cytoplasmic fluorescence. Following the addition of RT39 to sporozoites, a lag phase of around 5 min was observed, probably corresponding to the diffusion and peptide binding to sporozoites, after which parasites started to die in quick succession (Figure 3B).

[4] = tested on: P. berghei (Pb) salivary gland sporozoites; assay type: cell-based, P. berghei ANKA; conditions: 20 µM peptide, 37 °C, flow cytometry, n = 2
Pf oocysts = conditions: in vivo, at concentrations that start to be toxic to mosquitoes; cited from earlier work
P. knowlesi oocysts = conditions: in vivo, at concentrations that start to be toxic to mosquitoes; cited from earlier work
P. cynomolgi oocysts = conditions: in vivo, at concentrations that start to be toxic to mosquitoes; cited from earlier work
[5] = tested on: Escherichia coli DH5α (Ec); assay: E. coli viability, CFU quantification after incubation with cecropin B; assay type: cell-based; conditions: 2 µM cecropin B, 10 min, 37 °C, 10% FCS/PBS, CFU normalised to control; 3-4 independent experiments
Description: Escherichia coli DH5α (Ec) were grown at 37 °C under agitation in LB medium at an OD620 of approximately 0.35 (corresponding to 10^8 CFU/mL). After centrifugation and washing with PBS, the equivalent of 10^7 colony-forming units (CFUs)/mL were incubated at 37 °C for 10 min with or without Cecropin B (Sigma-Aldrich) in 10%FCS/PBS at concentrations ranging from 2 to 100 μM. The suspensions of bacteria were diluted 1000× in PBS and 50 µL were spread on LB-agar plates for CFU quantification. Viability was assessed by normalizing the number of CFU to the control group. A sample of E. coli heated at 70 °C for 10 min was used as a death control.
Cecropin B is a prototypical antimicrobial peptide (AMP, Figure 1) discovered in the hemolymph of the Cecropia moth. […] Since our sporozoite killing assay contains 10% FCS, which can inhibit the antimicrobial activity of several AMPs, we first tested the antimicrobial activity of cecropin B in the presence of 10% FCS.

[6] = tested on: P. yoelii (Py) salivary gland sporozoites; assay: Sporozoite cytotoxicity assay (PI uptake / loss of fluorescence); assay type: cell-based, P. yoelii 17XNL; conditions: 100 µM, 45 min incubation, 10% FCS/PBS; 3-4 independent experiments
Description: as §1, with “Viability was defined as the percentage of GFP+PI- sporozoites to the sum of GFP+PI-, GFP+PI+, and GFP-PI+ sporozoites.” left out
as §2

[7] = tested on: P. gallinaceum sporozoites; conditions: 250 µM; cited from earlier work
Description: Many natural antimicrobial peptides (AMPs), such as magainin, cecropin, and defensins, can kill oocysts from different plasmodial species when injected or over-expressed in the insect hemolymph. However, avian-infecting P. gallinaceum sporozoites are resistant to incubation with 250 µM of the AMPs metalnikowin, thanatin, drosocin, and metchnikowin. […] Yet, despite rendering mosquitoes susceptible to Gram-positive bacterial challenge, the k ...

[8] = 20 µM peptide, 45 min, 37 °C, 10% FCS/PBS, flow cytometry

With “RQIKIWFQNRRMKWKK [RK16, cell-penetrating peptide derived from the Drosophila melanogaster homeotic protein antennapedia a-helix 3, reference compound]” the “killing of GFP-expressing Pb sporozoites (in words)” value [1, 8] was “did not significantly kill”.

For “RQIKIWFQNRRMKWKKAKLNAEKLKDFKIRLQYFARGLQVYIRQLRLALQGKT [RT53]”, the Pb sporozoites killed [1, 8] is listed as “around 50%”, the “killing of GFP-expressing Pb sporozoites (in words)” value [1, 8] is listed as “able to kill” and the “incubation time at which membrane permeabilization plateaus” value (human cells) is listed as 60 min. The “membrane permeabilization activity compared with RT39” value (human cells) was “equivalent or higher”, the “cell death of cancer cells” value (cancer cells) was “elicit the cell death” and the “cell death of CD4+ T cells susceptible to HIV infection” value [2] was “elicit the cell death”. For the same substance, the “killing of Pf sporozoites (in words)” value [3] was “able to kill”.

In the case of “RQIKIWFQNRRMKWKKKDFKIRLQYFARGLQVYIRQL [RL37, penetratin fused with a peptide derived from the a-helix 18 of AAC11]”, the “killing of GFP-expressing Pb sporozoites (in words)” value [1, 8] is reported as “did not significantly kill”.

With “RQIKIWFQNRRMKWKKLQYFAAGLQVYIRQLRLALQGGKT [RT39M]” the “Pb sporozoite death compared with RT39” value ([1]; 2, 10, 40, 80 μM, 45 min, 37 °C, flow cytometry, n = 3) was “strongly decreased”.

In the case of “RQIKIWFQNRRMKWKKLQYFARGLQVYIRQLRLALQGGKT [RT39, penetratin fused with shorter AAC11 a-helix 18 peptide]”, the “lethality to Pb sporozoites compared with cytotoxic anti-CSP antibody” value ([1]; 20 µM peptide vs 10 µg/mL anti-PbCSP (3D11), 45 min, 37 °C) is reported as “as lethal as or more than”, the “time of sudden stop in motility with To-Pro 3 entry and mCherry leakage” value (Pb sporozoites; 20 µM RT39, exemplified dying sporozoite) is reported as ~ 450 s and the “effect on sporozoite motility (speed) before permeabilization” value (Pb sporozoites; 20 µM RT39, two-minute analysis of speed at end of lag phase or beginning of death plateau, 2-3 independent experiments) is reported as “did not significantly impact sporozoite motility”. For the same substance, the “lag phase before parasites start to die” value (Pb sporozoites; 20 µM RT39 added to sporozoites in PBS 10% FCS, 37 °C, recorded 20 min, microscopy) was “around 5 min”, the “cell death of cancer cells” value (cancer cells) was “elicit the cell death” and the “cell death of CD4+ T cells susceptible to HIV infection” value [2] was “elicit the cell death”. For the same substance, the “incubation time at which most Pb sporozoites are killed” value [4] was < 5 min and 5 min, the “lethality to Pf sporozoites compared with cytotoxic anti-CSP antibody” value ([3]; 20 µM peptide vs cytotoxic anti-CSP antibody) was “as lethal as or more than” and the “killing of Pf sporozoites (in words)” value [3] was “stronger killing activity than RT53”.

In the case of “cecropin B: cationic amphipathic antimicrobial insect peptide from Hyalophora cecropia, purchased from Sigma-Aldrich (KWKVFKKIEKMGRNIRNGIVKAGPAIAVLGEAKAL; ends and bridges not checked; UniProt P01508 27-61, looked up)”, the “development of Pf oocysts” value (Pf oocysts) is listed as “inhibit the development”, the “development of P. knowlesi oocysts” value (P. knowlesi oocysts) is listed as “inhibit the development” and the “killing of Pb sporozoites” value ([1]; 100 µM, 45 min incubation, 10% FCS/PBS, 3-4 independent experiments) is listed as “did not significantly kill”. For the same substance, the “development of P. cynomolgi oocysts” value (P. cynomolgi oocysts) was “inhibit the development”, the “killing of E. coli” value [5] was “efficiently kill” and the “killing of Py sporozoites” value [6] was “did not significantly kill”.

For drosocin, the “susceptibility of P. gallinaceum sporozoites to incubation” value [7] is listed as “resistant”.

For metchnikowin, the “susceptibility of P. gallinaceum sporozoites to incubation” value [7] is given as “resistant”.

For thanatin, the “susceptibility of P. gallinaceum sporozoites to incubation” value [7] is given as “resistant”.

For “{FITC}-RQIKIWFQNRRMKWKKLQYFARGLQVYIRQLRLALQGGKT [RT39-FITC, FITC-labeled RT39]”, the “Ratio MFI SPZ/Bk of live parasites” value (Pb sporozoites; 20 µM RT39-FITC in solution, spinning-disk microscopy, 1 μM To-Pro 3, 10% FCS/PBS) was ~ 1 and the “site of membrane permeabilization on the sporozoite body” value (Pb sporozoites; 20 μM RT39-FITC, 1 μM To-Pro 3, n = 34 sporozoites from 2 independent experiments) was “frequently occurred at the posterior part of the sporozoite body”.
